Laboratory results published in the supplement of paper PMC11061612.

Key:
Assay in all cases: combination Emax (second highest fraction inhibited in the dose matrix, 72 h); higher = more inhibition; extreme values may be limits of the assay
[1] = tested on: SW1710 (Bladder Carcinoma)
Method in brief: (§1)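 Cell lines grown in DMEM/F12 or RPMI with 10% FBS were plated in 1536-well plates and held 24 hours at 37°C, 5% CO2 before 72 hours of exposure to two-drug dose matrices, with DMSO typically at 0.2%. CellTiter-Glo 2.0 luminescence gave viability, which was converted to inhibition. Vehicle wells were set to 0 and blank wells to 1. Combination Emax is the second-highest inhibition in the matrix, and Bliss excess is the observed combination effect minus the expected EA + EB − EA·EB, where EA and EB are the single-agent effects.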

[2] = tested on: WSU-NHL (B-Cell Non-Hodgkin's Lymphoma)
Method in brief: as §1

[3] = tested on: SNU-16 (Gastric Carcinoma)
Method in brief: as §1

[4] = tested on: LS-123 (Colorectal Carcinoma)
Method in brief: as §1

[5] = tested on: LNZTA3WT4 (Low Grade Glioma)
Method in brief: as §1

LOXIMVI (Melanoma) = tested on: LOXIMVI (Melanoma)
Method in brief: as §1

[6] = tested on: SNU-449 (Hepatocellular Carcinoma)
Method in brief: as §1

[7] = tested on: KYAE-1 (Esophageal Adenocarcinoma)
Method in brief: as §1

EW-11 (Ewing's Sarcoma) = tested on: EW-11 (Ewing's Sarcoma)
Method in brief: as §1

[8] = tested on: NCI-H524 (Small Cell Lung Carcinoma)
Method in brief: as §1

GAMG (Glioblastoma) = tested on: GAMG (Glioblastoma)
Method in brief: as §1

[9] = tested on: SAS (Oral Cavity Carcinoma)
Method in brief: as §1

[10] = tested on: BFTC-909 (Kidney Carcinoma)
Method in brief: as §1

Row | Compound | combination Emax [1] | combination Emax [2] | combination Emax [3] | combination Emax [4] | combination Emax [5] | combination Emax (LOXIMVI (Melanoma)) | combination Emax [6] | combination Emax [7] | combination Emax (EW-11 (Ewing's Sarcoma)) | combination Emax [8] | combination Emax (GAMG (Glioblastoma)) | combination Emax [9] | combination Emax [10]
1 | C=CCn1c(=O)c2cnc(Nc3ccc(N4CCN(C)CC4)cc3)nc2n1-c1cccc(C(C)(C)O)n1 [AZD1775] + Nc1ccn([C@@H]2O[C@H](CO)[C@@H](O)C2(F)F)c(=O)n1 [Gemcitabine] (first compound max 1 µM, partner max 0.3 µM) | 0.755 | 0.987 | 0.998 | 0.68 | 0.886 | 0.797 | 0.426 | 0.316 | 0.758 | 0.951 | 0.805 | 0.996 | 
2 | CN(CCO)CC[C@H](CSc1ccccc1)Nc1ccc(S(=O)(=O)NC(=O)c2ccc(N3CCC([C@@H](O)c4ccccc4-c4ccc(Cl)cc4)CC3)cc2)cc1S(=O)(=O)C(F)(F)F [AZD4320] + CS(=O)(=O)CCNCc1ccc(-c2ccc3ncnc(Nc4ccc(OCc5cccc(F)c5)c(Cl)c4)c3c2)o1 [Lapatinib] (first compound max 1 µM, 7x7, partner max 10 µM) | 0.553 | 0.945 | 0.941 |  | 0.398 | 0.64 | 0.694 | 0.97 | 0.95 | 0.968 | 0.951 | 0.525 | 
3 | Cc1c2c(nn1C)CSCc1cc(n(C)n1)CSc1cc(c3ccccc3c1)OCCCc1c(C(=O)O)n(C)c3c-2c(Cl)ccc13 [AZD5991] + CC(=O)O[C@H]1C(=O)[C@@]2(C)[C@H]([C@H](OC(=O)c3ccccc3)[C@]3(O)C[C@H](OC(=O)[C@H](O)[C@@H](NC(=O)c4ccccc4)c4ccccc4)C(C)=C1C3(C)C)[C@]1(OC(C)=O)CO[C@@H]1C[C@@H]2O [Paclitaxel] (first compound max 1 µM, 7x7, partner max 3 µM) | 0.836 | 0.998 | 1 | 0.463 | 0.899 | 0.755 | 0.325 | 0.175 | 0.895 | 0.929 | 0.999 | 0.66 | 
4 | Cc1c2c(nn1C)CSCc1cc(n(C)n1)CSc1cc(c3ccccc3c1)OCCCc1c(C(=O)O)n(C)c3c-2c(Cl)ccc13 [AZD5991] + CS(=O)(=O)CCNCc1ccc(-c2ccc3ncnc(Nc4ccc(OCc5cccc(F)c5)c(Cl)c4)c3c2)o1 [Lapatinib] (first compound max 1 µM, 7x7, partner max 10 µM) | 0.185 | 0.909 | 0.998 | 0.394 | 0.447 | 0.535 | 0.547 | 0.84 | 0.572 | 0.502 | 0.507 | 0.485 | 
5 | C[C@@H]1COCCN1c1cc(C2([S@](C)(=N)=O)CC2)nc(-c2ccnc3[nH]ccc23)n1 [AZD6738] + C1CC(C1)(C(=O)[O-])C(=O)[O-].N.N.[Pt+2] [Carboplatin] (first compound max 10 µM, 7x7, partner max 10 µM) | 0.429 | 0.849 |  | 0.626 | 0.806 | 0.619 | 0.227 | 0.0812 | 0.584 | 0.687 | 0.611 | 0.759 | 
6 | C[C@@H]1COCCN1c1cc(C2([S@](C)(=N)=O)CC2)nc(-c2ccnc3[nH]ccc23)n1 [AZD6738] + Nc1ccn([C@@H]2O[C@H](CO)[C@@H](O)C2(F)F)c(=O)n1 [Gemcitabine] (first compound max 10 µM, 7x7, partner max 0.3 µM) | 0.655 | 0.993 | 1 | 0.705 | 0.954 | 0.92 | 0.557 | 0.0714 | 0.833 | 0.994 | 0.87 | 0.991 | 
7 | C[C@@H](Nc1cc(F)cc(F)c1)c1cc(C(=O)N(C)C)cc2c(=O)cc(N3CCOCC3)oc12 [AZD8186] + C1CN(CCC1(C(=O)N[C@@H](CCO)C2=CC=C(C=C2)Cl)N)C3=NC=NC4=C3C=CN4 [AZD5363] (first compound max 10 µM, 7x7, partner max 10 µM) | 0.495 | 0.9 | 0.22 | 0.408 | 0.357 | 0.287 | 0.198 | 0.154 | 0.579 | 0.224 | 0.657 | 0.364 | 
8 | C[C@@H](Oc1cc(-c2cnn(C3CCNCC3)c2)cnc1N)c1c(Cl)ccc(F)c1Cl [Crizotinib] + CC1=C(C(=CC=C1)Cl)NC(=O)C2=CN=C(S2)NC3=CC(=NC(=N3)C)N4CCN(CC4)CCO [Dasatinib] (first compound max 10 µM, 7x7, partner max 2 µM) | 0.944 | 0.994 | 0.909 | 0.967 | 0.666 | 0.972 | 0.831 | 0.169 | 0.788 | 0.977 | 0.929 | 0.779 | 
9 | C[C@@H](Oc1cc(-c2cnn(C3CCNCC3)c2)cnc1N)c1c(Cl)ccc(F)c1Cl [Crizotinib] + Cn1cnc2c(F)c(Nc3ccc(Br)cc3Cl)c(C(=O)NOCCO)cc21 [Selumetinib] (first compound max 10 µM, 7x7, partner max 10 µM) | 0.381 | 0.98 | 0.989 | 0.62 | 0.456 | 0.926 | 0.455 | 0.0881 | 0.81 | 0.983 | 0.54 | 0.781 | 
10 | CS(=O)(=O)CCNCc1ccc(-c2ccc3ncnc(Nc4ccc(OCc5cccc(F)c5)c(Cl)c4)c3c2)o1 [Lapatinib] + Cn1cnc2c(F)c(Nc3ccc(Br)cc3Cl)c(C(=O)NOCCO)cc21 [Selumetinib] (first compound max 10 µM, 7x7, partner max 10 µM) | 0.317 | 0.788 | 0.557 | 0.677 | 0.369 | 0.717 | 0.514 | 0.83 | 0.195 | 0.305 | 0.644 | 0.677 | 
11 | CS(=O)(=O)CCNCc1ccc(-c2ccc3ncnc(Nc4ccc(OCc5cccc(F)c5)c(Cl)c4)c3c2)o1 [Lapatinib] + NC1(c2ccc(-c3nc4ccn5c(=O)[nH]nc5c4cc3-c3ccccc3)cc2)CCC1 [MK-2206] (first compound max 10 µM, 7x7, partner max 10 µM) | 0.602 | 0.969 | 0.964 | 0.629 | 0.911 | 0.967 | 0.82 | 0.892 | 0.948 | 0.941 | 0.862 | 0.641 | 0.941
12 | O=C(c1cc(Cc2n[nH]c(=O)c3ccccc23)ccc1F)N1CCN(C(=O)C2CC2)CC1 [Olaparib] + CC1(C)CCC(CN2CCN(c3ccc(C(=O)NS(=O)(=O)c4ccc(NCC5CCOCC5)c([N+](=O)[O-])c4)c(Oc4cnc5[nH]ccc5c4)c3)CC2)=C(c2ccc(Cl)cc2)C1 [Venetoclax] (first compound max 10 µM, 7x7, partner max 1 µM) | 0.114 | 0.575 | 0.607 | 0.191 | 0.0965 | 0.352 | 0.0891 | 0.154 | 0.698 | 0.206 | 0.0955 | 0.176 | 
13 | O=C(c1cc(Cc2n[nH]c(=O)c3ccccc23)ccc1F)N1CCN(C(=O)C2CC2)CC1 [Olaparib] + CN(CC[C@H](CSC1=CC=CC=C1)NC2=C(C=C(C=C2)S(=O)(=O)NC(=O)C3=CC=C(C=C3)N4CCC(CC4)[C@H](C5=CC=CC=C5C6=CC=C(C=C6)Cl)O)S(=O)(=O)C(F)(F)F)CCO [AZD4320] (first compound max 10 µM, 7x7, partner max 1 µM) | 0.265 | 0.674 | 0.691 | 0.512 | 0.168 | 0.447 | 0.11 | 0.587 | 0.923 | 0.755 | 0.223 | 0.205 | 
14 | O=C(c1cc(Cc2n[nH]c(=O)c3ccccc23)ccc1F)N1CCN(C(=O)C2CC2)CC1 [Olaparib] + COc1nnc2ccc(N3CCC(c4ccc(OCCN5CCN(C)C(=O)[C@H]5C)cc4)CC3)nn12 [AZD5153] (first compound max 10 µM, 7x7, partner max 1 µM) | 0.379 | 0.929 | 0.769 | 0.359 | 0.357 | 0.864 | 0.208 | 0.156 | 0.712 | 0.542 | 0.448 | 0.742 | 
15 | O=C(c1cc(Cc2n[nH]c(=O)c3ccccc23)ccc1F)N1CCN(C(=O)C2CC2)CC1 [Olaparib] + Cc1c2c(nn1C)CSCc1cc(n(C)n1)CSc1cc(c3ccccc3c1)OCCCc1c(C(=O)O)n(C)c3c-2c(Cl)ccc13 [AZD5991] (first compound max 10 µM, 7x7, partner max 1 µM) | 0.119 | 0.797 | 0.994 | 0.127 | 0.123 | 0.311 | 0.0781 | 0.231 | 0.831 | 0.426 | 0.0955 | 0.122 | 
16 | Cc1nc(-c2cn3c(n2)-c2ccc(-c4cnn(C(C)(C)C(N)=O)c4)cc2OCC3)n(C(C)C)n1 [Taselisib] + O=C(Nc1ccc2[nH]nc(-c3ccncc3)c2c1)[C@@H]1CCN(CC(=O)N2CCN(c3ccc(-c4ncccn4)cc3)CC2)C1 [SCH772984] (first compound max 10 µM, 7x7, partner max 5 µM) | 0.422 | 0.97 | 0.82 | 0.889 | 0.66 | 1 | 0.445 | 0.408 | 0.746 | 0.411 | 0.78 | 0.945 | 
17 | CC1(C)CCC(CN2CCN(c3ccc(C(=O)NS(=O)(=O)c4ccc(NCC5CCOCC5)c([N+](=O)[O-])c4)c(Oc4cnc5[nH]ccc5c4)c3)CC2)=C(c2ccc(Cl)cc2)C1 [Venetoclax] + CS(=O)(=O)CCNCc1ccc(-c2ccc3ncnc(Nc4ccc(OCc5cccc(F)c5)c(Cl)c4)c3c2)o1 [Lapatinib] (first compound max 1 µM, 7x7, partner max 10 µM) | 0.18 | 0.798 | 0.399 | 0.267 | 0.208 | 0.426 | 0.445 | 0.758 | 0.263 | 0.108 | 0.284 | 0.392 | 
